Experimental findings from patent US7135466B2 (Kirin Beer Kabushiki Kaisha, priority 1999, dated 2006) are described below.

Each structure is given as a SMILES string. Where only a bound is given, the exact number is not on record here.

The target in one test is T1, PDGF-Ra (Homo sapiens, UniProt P16234).
T1 construct: host or cells: G-292 human osteosarcoma cells
Nature of the test: Inhibitory activity against PDGF-Ra phosphorylation by PDGF-AA stimulation using G292. The test is classed as cell-based. Conditions: for IC50: > means inhibition at indicated concentration not more than 50%, < and << not less than 50%, read-out: PDGF (E) IC50; for inhibition at 0.1 µM: G292, read-out: PDGF (E) inhibition (%) at 100 nM. The procedure, abridged:
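G-292 human osteosarcoma cells in 0.1% FBS medium overnight, given compound for 1 hr at 37° C, then PDGF-AA 50 ng/ml for 5 min. Lysates captured on anti-phosphotyrosine (PY-20) plates and probed with anti-PDGF-Ra plus HRP secondary; absorbance at 450 nm.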

In another test the target is T2, c-kit (Homo sapiens, UniProt P10721).
T2 construct: MO7e (human megakaryocytic leukemia cell line) which had been arrested for 20 hr; endogenous in cells; host or cells: MO7e human megakaryocytic leukemia cell line
T2 sequence (P10721 26-976): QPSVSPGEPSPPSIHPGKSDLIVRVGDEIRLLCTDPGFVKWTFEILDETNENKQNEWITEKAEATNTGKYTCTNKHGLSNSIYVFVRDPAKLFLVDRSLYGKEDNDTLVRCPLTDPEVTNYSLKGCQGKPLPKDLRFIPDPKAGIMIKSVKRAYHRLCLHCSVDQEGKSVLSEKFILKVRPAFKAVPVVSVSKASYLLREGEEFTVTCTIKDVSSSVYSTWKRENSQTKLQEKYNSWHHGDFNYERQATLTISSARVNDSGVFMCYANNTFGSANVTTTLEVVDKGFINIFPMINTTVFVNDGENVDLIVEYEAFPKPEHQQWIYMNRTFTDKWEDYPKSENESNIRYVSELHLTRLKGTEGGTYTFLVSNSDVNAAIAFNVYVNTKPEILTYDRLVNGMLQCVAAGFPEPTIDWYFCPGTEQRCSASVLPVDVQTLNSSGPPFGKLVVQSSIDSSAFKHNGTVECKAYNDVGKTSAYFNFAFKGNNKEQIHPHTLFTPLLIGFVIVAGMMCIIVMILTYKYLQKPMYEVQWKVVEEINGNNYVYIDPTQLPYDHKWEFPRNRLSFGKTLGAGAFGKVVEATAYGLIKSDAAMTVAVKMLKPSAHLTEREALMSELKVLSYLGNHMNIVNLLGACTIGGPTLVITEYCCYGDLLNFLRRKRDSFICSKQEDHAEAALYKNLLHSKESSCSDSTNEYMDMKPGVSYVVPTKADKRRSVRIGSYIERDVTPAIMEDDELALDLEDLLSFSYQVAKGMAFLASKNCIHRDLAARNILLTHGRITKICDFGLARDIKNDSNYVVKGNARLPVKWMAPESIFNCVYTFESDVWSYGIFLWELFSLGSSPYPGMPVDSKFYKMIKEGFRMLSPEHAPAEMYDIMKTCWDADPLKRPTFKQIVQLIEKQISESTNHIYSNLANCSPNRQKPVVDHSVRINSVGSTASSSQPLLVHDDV
Nature of the test: Inhibitory activity against c-kit autophosphorylation (MO7e cells, h-SCF). The test is classed as cell-based. The conditions noted are these: for inhibition at 1 µM: Mo7e, figure within parentheses in −( ) or >1000( ), at 1000 nM; for IC50: MO7e cells, 50 ng/ml h-SCF, read-out: c-kit IC50. The procedure, abridged: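 Ligand-induced c-kit tyrosine phosphorylation is measured in MO7e cells that were quiesced 20 hr and preincubated with compound for 1 hr prior to a 5 min pulse of 50 ng/ml human SCF. Phospho-c-kit is detected by anti-phosphotyrosine capture ELISA, A450.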

[1] abbreviates: figure within parentheses in >100( ), at 100 nM.

T1 sequence (P16234 24-1089): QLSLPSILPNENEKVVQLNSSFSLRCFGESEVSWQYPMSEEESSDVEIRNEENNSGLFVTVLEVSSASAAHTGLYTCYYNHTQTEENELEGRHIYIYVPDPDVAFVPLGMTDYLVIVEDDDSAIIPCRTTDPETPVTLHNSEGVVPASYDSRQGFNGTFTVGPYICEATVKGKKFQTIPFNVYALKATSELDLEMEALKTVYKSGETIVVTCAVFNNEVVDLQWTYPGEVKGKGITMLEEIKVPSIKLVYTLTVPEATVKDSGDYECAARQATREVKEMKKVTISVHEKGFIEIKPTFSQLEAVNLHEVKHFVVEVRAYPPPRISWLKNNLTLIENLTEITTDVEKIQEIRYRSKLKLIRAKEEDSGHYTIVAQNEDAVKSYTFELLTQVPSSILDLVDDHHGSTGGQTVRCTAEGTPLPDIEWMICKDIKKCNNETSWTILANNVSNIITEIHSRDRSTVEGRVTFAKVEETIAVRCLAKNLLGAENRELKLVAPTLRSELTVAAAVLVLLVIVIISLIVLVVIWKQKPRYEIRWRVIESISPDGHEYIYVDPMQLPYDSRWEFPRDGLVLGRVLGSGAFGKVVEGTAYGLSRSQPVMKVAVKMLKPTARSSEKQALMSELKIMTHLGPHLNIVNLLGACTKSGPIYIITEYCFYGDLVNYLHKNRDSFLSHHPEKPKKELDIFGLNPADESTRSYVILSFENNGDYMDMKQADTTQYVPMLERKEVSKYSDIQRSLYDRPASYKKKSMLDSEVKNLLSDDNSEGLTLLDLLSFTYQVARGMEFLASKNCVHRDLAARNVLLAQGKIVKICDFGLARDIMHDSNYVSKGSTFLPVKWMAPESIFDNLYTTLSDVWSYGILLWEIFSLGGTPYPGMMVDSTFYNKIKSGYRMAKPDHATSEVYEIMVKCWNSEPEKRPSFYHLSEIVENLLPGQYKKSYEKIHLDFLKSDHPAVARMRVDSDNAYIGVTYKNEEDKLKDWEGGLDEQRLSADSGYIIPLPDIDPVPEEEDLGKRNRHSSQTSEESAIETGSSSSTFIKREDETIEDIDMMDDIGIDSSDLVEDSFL

As to `COc1cc2ncnc(Oc3ccc(NC(=S)NN4CCCCC4)cc3)c2cc1OC` [Example 524, N-{4-[(6,7-Dimethoxy-4-quinazolinyl)oxy]phenyl}-N′-(1-piperidinyl)thiourea], the IC50 on PDGF-Ra was more than 0.1 µM. Also, the inhibition at 0.1 µM at PDGF-Ra (setting [1]) amounted to 21%. Moreover, the inhibition at 1 µM on c-kit was 21%.
Turning to `COc1cc2ncnc(Oc3ccc(NC(=S)NCCCN4CCCC4=O)cc3)c2cc1OC` [Example 525, N-{4-[(6,7-Dimethoxy-4-quinazolinyl)oxy]phenyl}-N′-[3-(2-oxotetrahydro-1H-1-pyrrolyl)-propyl]thiourea], the IC50 on PDGF-Ra turned out to be 0.079 µM. For the same compound, the inhibition at 1 µM at c-kit came out at 41%.
Consider `COc1cc2ncnc(Oc3ccc(NC(=S)NCCCn4ccnc4)cc3)c2cc1OC` [Example 526, N-{4-[(6,7-Dimethoxy-4-quinazolinyl)oxy]phenyl}-N′-[3-(1-imidazoyl)propyl]thiourea], for which the IC50 at PDGF-Ra was more than 0.1 µM; on c-kit, 0.731 µM. Besides, the inhibition at 0.1 µM on PDGF-Ra (setting [1]) amounted to 46%.
Consider `COc1cc2ncnc(Oc3ccc(NC(=S)NCCN4CCOCC4)cc3)c2cc1OC` [Example 527, N-{4-[(6,7-Dimethoxy-4-quinazolinyl)oxy]phenyl}-N′-[2-(1-morpholinyl)ethyl]thiourea], for which the results for the 50% inhibitory concentration (IC50) at PDGF-Ra and at c-kit were 0.065 µM and 0.875 µM, respectively.
In the same order, the values of `CCN(CCNC(=S)Nc1ccc(Oc2ncnc3cc(OC)c(OC)cc23)cc1)c1ccccc1C` [Example 528] are 0.033 µM and 0.343 µM.
As for `COc1cc2ncnc(Oc3ccc(NC(=S)NCCN(C)C)cc3)c2cc1OC` [Example 529, N-{4-[(6,7-Dimethoxy-4-quinazolinyl)oxy]phenyl}-N′-(2-dimethylaminoethyl) thiourea], the IC50 on PDGF-Ra was more than 0.1 µM. On PDGF-Ra (setting [1]), the inhibition at 0.1 µM is 38%. At c-kit, the inhibition at 1 µM amounted to 8%.
On to `COc1cc2ncnc(Oc3ccc(NC(=S)NCCN4CCCC4)cc3)c2cc1OC` [Example 530, N-{4-[(6,7-Dimethoxy-4-quinazolinyl)oxy]phenyl}-N′-[2-(1-pyrrolidyl)ethyl]thiourea], for which, on PDGF-Ra, the IC50 is more than 0.1 µM. In addition, the inhibition at 0.1 µM on PDGF-Ra (setting [1]) came out at 45%. The inhibition at 1 µM on c-kit is 34%.
On to `CCCCN(CCCC)C(C)CNC(=S)Nc1ccc(Oc2ncnc3cc(OC)c(OC)cc23)cc1` (stereo not drawn) [Example 532, N-{4-[(6,7-Dimethoxy-4-quinazolinyl)oxy]phenyl}-N′-(2-dibutylaminopropyl)thiourea], for which the IC50 at PDGF-Ra was more than 0.1 µM; at c-kit, 0.752 µM. At PDGF-Ra (setting [1]), the inhibition at 0.1 µM came to 44%.
For the compound `COc1cc2ncnc(Oc3ccc(NC(=S)NCCCN4CCOCC4)cc3)c2cc1OC` [Example 533, N-{4-[(6,7-Dimethoxy-4-quinazolinyl)oxy]phenyl}-N′-[3-(1-morpholino)propyl]thiourea], the IC50 at PDGF-Ra worked out at 0.064 µM; on c-kit, 0.623 µM.
Regarding `COc1cc2ncnc(Oc3ccc(NC(=S)NCCCN4CCCCC4C)cc3)c2cc1OC` (stereo not drawn) [Example 534, N-{4-[(6,7-Dimethoxy-4-quinazolinyl)oxy]phenyl}-N′-{3-[1-(2-methylpiperidinyl)]propyl}thiourea], at PDGF-Ra, the 50% inhibitory concentration (IC50) was 0.051 µM. Moreover, the inhibition at 1 µM on c-kit was 35%.
`COc1cc2ncnc(Oc3ccc(NC(=S)NCCN(C(C)C)C(C)C)cc3)c2cc1OC` [Example 535, N-{4-[(6,7-Dimethoxy-4-quinazolinyl)oxy]phenyl}-N′-(2-diisopropylaminoethyl)thiourea]: the IC50 at PDGF-Ra was 0.032 µM. Further, the inhibition at 1 µM at c-kit turned out to be 27%.
On to `COc1cc2ncnc(Oc3ccc(NC(=S)NCCCN4CCCC4)cc3)c2cc1OC` [Example 537, N-{4-[(6,7-Dimethoxy-4-quinazolinyl)oxy]phenyl}-N′-[3-(1-pyrrolidinyl)propyl]thiourea], for which the IC50 at PDGF-Ra was more than 0.1 µM. Besides, on PDGF-Ra (setting [1]), the inhibition at 0.1 µM came to 34%. Besides, the inhibition at 1 µM at c-kit is 34%.
As for `COc1cc2nccc(Oc3cc(C)c(NC(=S)NCCN(C)C)cc3C)c2cc1OC` [Example 538, N-{4-[(6,7-Dimethoxy-4-quinolyl)oxy]-2,5-dimethylphenyl}-N′-(2-dimethylaminoethyl)thiourea], the half-maximal inhibitory concentration (IC50) on PDGF-Ra was more than 0.1 µM; on c-kit, 0.768 µM. Moreover, at PDGF-Ra (setting [1]), the inhibition at 0.1 µM is 22%.
For `COc1cc2nccc(Oc3cc(C)c(NC(=S)NCCCn4ccnc4)cc3C)c2cc1OC` [Example 539], the IC50 was more than 0.1 µM on PDGF-Ra and 0.415 µM on c-kit. On PDGF-Ra (setting [1]), the “PDGF (E) inhibition (%) at 100 nM” value is 45%.
Turning to `CCN(CCNC(=S)Nc1cc(C)c(Oc2ccnc3cc(OC)c(OC)cc23)cc1C)c1ccccc1C` [Example 540, N-{4-[(6,7-Dimethoxy-4-quinolyl)oxy]-2,5-dimethylphenyl}-N′-{2-[N-ethyl-N-(o-tolyl)amino]-ethyl}thiourea], the figures for the IC50 at PDGF-Ra and at c-kit were 0.048 µM and 0.447 µM, respectively.
As to `COc1cc2nccc(Oc3cc(C)c(NC(=S)NCCN4CCCC4)cc3C)c2cc1OC` [Example 541, N-{4-[(6,7-Dimethoxy-4-quinolyl)oxy]-2,5-dimethylphenyl}-N′-[2-(1-pyrrolidinyl)ethyl]thiourea], the results for the IC50 at PDGF-Ra and at c-kit were 0.07 µM and 0.794 µM, respectively.
As for `COc1cc2nccc(Oc3ccc(NC(=S)NCCN(C)C)c(C)c3C)c2cc1OC` [Example 542, N-{4-[(6,7-Dimethoxy-4-quinolyl)oxy]-2,3-dimethylphenyl}-N′-(2-dimethylaminoethyl)thiourea], the IC50 at PDGF-Ra is more than 0.1 µM; on c-kit, 0.442 µM. The inhibition at 0.1 µM at PDGF-Ra (setting [1]) was determined as 45%.
As to `COc1cc2nccc(Oc3ccc(NC(=S)NCCCn4ccnc4)c(C)c3C)c2cc1OC` [Example 543], the IC50 at PDGF-Ra was 0.054 µM; on c-kit, 0.328 µM.
Regarding `CCN(CCNC(=S)Nc1ccc(Oc2ccnc3cc(OC)c(OC)cc23)c(C)c1C)c1ccccc1C` [Example 544, N-{4-[(6,7-Dimethoxy-4-quinolyl)oxy]-2,3-dimethylphenyl}-N′-{2-[N-ethyl-N-(o-tolyl)amino]-ethyl}thiourea], the IC50 was less than 0.01 µM on PDGF-Ra and 0.216 µM on c-kit.
On the same counts, the results for `COc1cc2nccc(Oc3cc(C)c(NC(=S)NCCN4CCOCC4)cc3C)c2cc1OC` [Example 545, N-{4-[(6,7-Dimethoxy-4-quinolyl)oxy]-2,5-dimethylphenyl}-N′-[2-(1-morpholino)ethyl]thiourea] are 0.07 µM and 0.254 µM.
`CCN(CC)CCCNC(=S)Nc1ccc(Oc2ccnc3cc(OC)c(OC)cc23)c(C)c1C` [Example 546, N-{4-[(6,7-Dimethoxy-4-quinolyl)oxy]-2,3-dimethylphenyl}-N′-(3-diethylaminopropyl)thiourea]: the IC50 on PDGF-Ra worked out at 0.054 µM. On c-kit, the inhibition at 1 µM was 44%.
`CCCCN(CCCC)CCCNC(=S)Nc1ccc(Oc2ccnc3cc(OC)c(OC)cc23)c(C)c1C` [Example 547, N-{4-[(6,7-Dimethoxy-4-quinolyl)oxy]-2,3-dimethylphenyl}-N′-(3-dibutylaminopropyl)thiourea]: the IC50 on PDGF-Ra is more than 0.1 µM. In addition, the inhibition at 0.1 µM at PDGF-Ra (setting [1]) stood at 33%. Besides, the inhibition at 1 µM on c-kit was determined as 41%.
In the case of `COc1cc2nccc(Oc3ccc(NC(=S)NCCCN4CCOCC4)c(C)c3C)c2cc1OC` [Example 548, N-{4-[(6,7-Dimethoxy-4-quinolyl)oxy]-2,3-dimethylphenyl}-N′-[3-(1-morpholino)propyl]thiourea], the IC50 at PDGF-Ra was found to be 0.046 µM; on c-kit, 0.268 µM.
Turning to `COc1cc2nccc(Oc3ccc(NC(=S)NCCCN4CCCCC4C)c(C)c3C)c2cc1OC` (stereo not drawn) [Example 549, N-{4-[(6,7-Dimethoxy-4-quinolyl)oxy]-2,3-dimethylphenyl}-N′-[3-(2-methylpiperidinyl)propyl]thiourea], the figures for the half-maximal inhibitory concentration (IC50) on PDGF-Ra and on c-kit were 0.062 µM and 0.681 µM, respectively.
Turning to `COc1cc2nccc(Oc3ccc(NC(=S)NCCN(C(C)C)C(C)C)c(C)c3C)c2cc1OC` [Example 550, N-{4-[(6,7-Dimethoxy-4-quinolyl)oxy]-2,3-dimethylphenyl}-N′-(2-diisopropylaminoethyl)thiourea], the IC50 on PDGF-Ra was determined as 0.077 µM; on c-kit, 0.536 µM.
Regarding `CCCCN(CCCC)CCCNC(=S)Nc1cc(C)c(Oc2ccnc3cc(OC)c(OC)cc23)cc1C` [Example 552, N-{4-[(6,7-Dimethoxy-4-quinolyl)oxy]-2,5-dimethylphenyl}-N′-(3-dibutylaminopropyl)thiourea], the IC50 at PDGF-Ra is more than 0.1 µM. In addition, the inhibition at 0.1 µM on PDGF-Ra (setting [1]) is 10%. The inhibition at 1 µM on c-kit was 28%.
Consider `COc1cc2nccc(Oc3cc(C)c(NC(=S)NCCCN4CCOCC4)cc3C)c2cc1OC` [Example 553, N-{4-[(6,7-Dimethoxy-4-quinolyl)oxy]-2,5-dimethylphenyl}-N′-[3-(1-morpholino)propyl]thiourea], for which the figures for the IC50 on PDGF-Ra and at c-kit were more than 0.1 µM and 0.32 µM, respectively. Also, on PDGF-Ra (setting [1]), the inhibition at 0.1 µM was found to be 40%.
In the case of `COc1cc2nccc(Oc3cc(C)c(NC(=S)NCCN(C(C)C)C(C)C)cc3C)c2cc1OC` [Example 555, N-{4-[(6,7-Dimethoxy-4-quinolyl)oxy]-2,5-dimethylphenyl}-N′-(2-diisopropylaminoethyl)thiourea], on PDGF-Ra, the half-inhibitory concentration (IC50) was more than 0.1 µM. Further, the inhibition at 0.1 µM at PDGF-Ra (setting [1]) was found to be 29%. On c-kit, the inhibition at 1 µM came out at 39%.
On to `COc1cc2nccc(Oc3cc(C)c(NC(=S)NCCCN4CCN(C)CC4)cc3C)c2cc1OC` [Example 556, N-{4-[(6,7-Dimethoxy-4-quinolyl)oxy]-2,5-dimethylphenyl}-N′-[3-(4-methylpiperazinyl)propyl]thiourea], for which the IC50 on PDGF-Ra is more than 0.1 µM. Further, at PDGF-Ra (setting [1]), the inhibition at 0.1 µM came out at 13%. Further, the inhibition at 1 µM at c-kit is 28%.
